Tests used:
[1] = tested on: OVCAR-4 (Ovarian cancer); experiment: NCI-60 screen (SRB, 48 h); type: cell-based; conditions: Homo sapiens; for IC (TGI): OVCAR-4, 48 h; for GI50 / CC50: OVCAR-4; for GI50: read-out: GI50; for CC50: read-out: LC50 (the source's name)
[2] = tested on: EKVX (NSC lung cancer); experiment: NCI-60 screen (SRB, 48 h); conditions: Homo sapiens; for IC (TGI): 48 h, read-out: TGI; for CC50: read-out: LC50
[3] = tested on: NCI-H460 (NSC lung cancer); experiment: NCI-60 screen (SRB, 48 h); conditions: Homo sapiens; for GI50: NCI-H460; for IC (TGI): NCI-H460, 48 h, read-out: TGI; for CC50: NCI-H460, read-out: LC50
[4] = tested on: SK-MEL-5 (Melanoma); experiment: NCI-60 screen (SRB, 48 h); conditions: Homo sapiens; for GI50: SK-MEL-5; for IC (TGI): SK-MEL-5, 48 h, read-out: TGI
[5] = tested on: HCC-2998 (Colon cancer); experiment: NCI-60 screen (SRB, 48 h); conditions: for GI50 / IC (TGI) / CC50: Homo sapiens; for GI50: HCC 2998; for IC (TGI): HCC 2998, 48 h, read-out: TGI; for CC50: HCC 2998, read-out: LC50
[6] = tested on: MALME-3M (Melanoma); experiment: NCI-60 screen (SRB, 48 h); conditions: Homo sapiens; for IC (TGI): 48 h, read-out: TGI; for CC50: read-out: LC50
[7] = tested on: SF-295 (CNS cancer); experiment: NCI-60 screen (SRB, 48 h); conditions: Homo sapiens; for GI50: SF-295; for IC (TGI): SF-295, 48 h, read-out: TGI; for CC50: SF-295, read-out: LC50
[8] = tested on: CNS cancer subpanel; experiment: NCI-60 screen, subpanel; conditions: Homo sapiens; for IC (TGI): 48 h, read-out: TGI MG_MID; for GI50: read-out: GI50 MG_MID; for CC50: read-out: LC50 MG_MID
[9] = tested on: T-47D (Breast cancer); experiment: NCI-60 screen (SRB, 48 h); conditions: Homo sapiens, T47D; for IC (TGI): 48 h, read-out: TGI
[10] = tested on: SNB-19 (CNS cancer); experiment: NCI-60 screen (SRB, 48 h); conditions: Homo sapiens; for GI50: SNB-19; for IC (TGI): SNB-19, 48 h, read-out: TGI; for CC50: SNB-19, read-out: LC50
[11] = tested on: HT29 (colorectal carcinoma); experiment: SRB cytotoxicity assay, 72 h; type: cell-based, human; conditions: Homo sapiens, HT-29; HT29, 72 h, cut-off 30 µM; read-out: EC50
Summary of the method: (§1)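 EC50 values from SRB absorbance (570 nm) after TCA fixation, as percent surviving cells versus untreated controls. Compound exposure was 72 h at 0–30 µM, starting 24 h post-seeding, with final DMSO not above 0.5%.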

[12] = tested on: A375 (malignant melanoma); experiment: SRB cytotoxicity assay, 72 h; type: cell-based, human; conditions: Homo sapiens, A-375, 72 h, A375, 72 h, cut-off 30 µM; read-out: EC50
Summary of the method: as §1

[13] = tested on: FaDu (hypopharyngeal carcinoma); experiment: SRB cytotoxicity assay, 72 h; type: cell-based, human; conditions: Homo sapiens, cut-off 30 µM, read-out: EC50
Summary of the method: as §1

[14] = tested on: MCF-7 (breast carcinoma); experiment: SRB cytotoxicity assay, 72 h; type: cell-based, human; conditions: Homo sapiens, MCF7; MCF-7, 72 h, cut-off 30 µM; read-out: EC50
Summary of the method: as §1

[15] = tested on: A2780 (ovarian carcinoma); experiment: SRB cytotoxicity assay, 72 h; type: cell-based, human; conditions: Homo sapiens; A2780, 72 h, cut-off 30 µM; read-out: EC50
Summary of the method: as §1

[16] = tested on: KM12 (Colon cancer); experiment: NCI-60 screen (SRB, 48 h); conditions: Homo sapiens; for GI50: KM12; for IC (TGI): KM12, 48 h, read-out: TGI; for CC50: KM12, read-out: LC50
[17] = tested on: MCF7 (Breast cancer); experiment: NCI-60 screen (SRB, 48 h); conditions: Homo sapiens; for GI50: MCF7; for IC (TGI): MCF7, 48 h, read-out: TGI
[18] = tested on: Renal Cancer subpanel; experiment: NCI-60 screen, subpanel; conditions: Homo sapiens; for IC (TGI): 48 h, read-out: TGI MG_MID; for GI50: read-out: GI50 MG_MID; for CC50: read-out: LC50 MG_MID
[19] = tested on: NCI-H226 (NSC lung cancer); experiment: NCI-60 screen (SRB, 48 h); conditions: Homo sapiens; for GI50: NCI-H226; for IC (TGI): NCI-H226, 48 h, read-out: TGI
[20] = tested on: NCI-H522 (NSC lung cancer); experiment: NCI-60 screen (SRB, 48 h); conditions: Homo sapiens; for GI50: NCI-H522; for IC (TGI): NCI-H522, 48 h, read-out: TGI
[21] = tested on: A498 (Renal cancer); experiment: NCI-60 screen (SRB, 48 h); conditions: Homo sapiens; for GI50: A498; for IC (TGI): A498, 48 h, read-out: TGI; for CC50: A498, read-out: LC50
[22] = tested on: SW-620 (Colon cancer); experiment: NCI-60 screen (SRB, 48 h); conditions: Homo sapiens; for GI50: SW-620; for IC (TGI): SW-620, 48 h, read-out: TGI; for CC50: SW-620, read-out: LC50
[23] = tested on: ACHN (Renal cancer); experiment: NCI-60 screen (SRB, 48 h); conditions: for GI50 / IC (TGI) / CC50: Homo sapiens; for IC (TGI): 48 h, read-out: TGI; for CC50: read-out: LC50
[24] = tested on: TK-10 (Renal cancer); experiment: NCI-60 screen (SRB, 48 h); conditions: Homo sapiens; for GI50: TK-10; for IC (TGI): TK-10, 48 h, read-out: TGI; for CC50: TK-10, read-out: LC50

Work on `C=C(C)[C@@H]1CC[C@]2(C)[C@H](CC=C3[C@@H]4[C@@H](C)[C@H](C)CC[C@]4(CO)CC[C@]32C)[C@@]1(C)CCCN` [Compound 19] yielded an IC (TGI) [1] of 2850 nM, a GI50 [1] of 860 nM and a CC50 [1] of 25000 nM. It also gave a GI50 [2] of 1080 nM, an IC (TGI) [2] of 2940 nM and a CC50 [2] of 26500 nM. It also gave a GI50 [3] of 910 nM, an IC (TGI) [3] of 1710 nM and a CC50 [3] of 3190 nM. For the same compound, the GI50 [4] was 910 nM, the IC (TGI) [4] was 1650 nM and the CC50 ([4]; SK-MEL-5, read-out: LC50) was 3000 nM. The “Growth % of the Most Sensitive Cell Lines” value ([5]; HCC-2998, 1 dose 10 µM) was −93.35%, the GI50 [5] was 870 nM and the IC (TGI) [5] was 1620 nM. It also gave a CC50 [5] of 3020 nM, a GI50 [6] of 730 nM and an IC (TGI) [6] of 1420 nM. For the same compound, the CC50 [6] was 2740 nM, the GI50 [7] was 850 nM and the IC (TGI) [7] was 1580 nM. It also gave a CC50 [7] of 2940 nM, an IC (TGI) [8] of 3260 nM and a GI50 [8] of 1150 nM. For the same compound, the CC50 [8] was 12600 nM, the GI50 [9] was 1510 nM and the IC (TGI) [9] was 5150 nM. The CC50 ([9]; read-out: LC50) was greater than 50000 nM, the GI50 [10] was 2140 nM and the IC (TGI) [10] was 8110 nM. The CC50 [10] was 25000 nM, the EC50 [11] was 1840 ± 200 nM and the EC50 [12] was 2970 ± 200 nM. It also gave an EC50 [13] of 2950 ± 400 nM, an EC50 [14] of 2050 ± 200 nM and an EC50 [15] of 3300 ± 200 nM. It also gave a GI50 [16] of 910 nM, an IC (TGI) [16] of 1650 nM and a CC50 [16] of 3000 nM. It also gave a GI50 [17] of 830 nM, an IC (TGI) [17] of 1730 nM and an IC (TGI) [18] of 4630 nM. For the same compound, the GI50 [18] was 1560 nM, the CC50 [18] was 13300 nM and the GI50 [19] was 6720 nM. The IC (TGI) [19] was 18300 nM, the CC50 ([19]; NCI-H226, read-out: LC50) was 49900 nM and the GI50 [20] was 1040 nM. The IC (TGI) [20] was 2170 nM, the CC50 ([20]; NCI-H522, read-out: LC50) was 4540 nM and the GI50 [21] was 3830 nM. It also gave an IC (TGI) [21] of 11200 nM, a CC50 [21] of 27700 nM and a GI50 [22] of 1010 nM. It also gave an IC (TGI) [22] of 2110 nM, a CC50 [22] of 4390 nM and a GI50 [23] of 1420 nM. For the same compound, the IC (TGI) [23] was 3400 nM, the CC50 [23] was 17000 nM and the GI50 [24] was 2210 nM. For the same compound, the IC (TGI) [24] was 9750 nM and the CC50 [24] was 24600 nM.
In the case of `C=C(C)[C@@H]1CC[C@]2(C)[C@H](C=CC3=C4C[C@@](C)(CO)CC[C@]4(C)CC[C@]32C)[C@@]1(C)CCCN` [Compound 20], the IC (TGI) [1] is reported as 3090 nM, the GI50 [1] is reported as 1530 nM and the CC50 [1] is reported as 6230 nM. The GI50 [2] was 1600 nM, the IC (TGI) [2] was 3100 nM and the CC50 [2] was 6010 nM. It also gave a GI50 [3] of 1710 nM, an IC (TGI) [3] of 3330 nM and a CC50 [3] of 6490 nM. For the same compound, the GI50 [4] was 1720 nM, the IC (TGI) [4] was 3190 nM and the GI50 [5] was 790 nM. It also gave an IC (TGI) [5] of 2140 nM, a CC50 [5] of 4970 nM and a GI50 [6] of 1460 nM. The IC (TGI) [6] was 2910 nM, the CC50 [6] was 5820 nM and the GI50 [7] was 1780 nM. It also gave an IC (TGI) [7] of 3210 nM, a CC50 [7] of 5790 nM and an IC (TGI) [8] of 3180 nM. It also gave a GI50 [8] of 1670 nM, a CC50 [8] of 6040 nM and a GI50 [9] of 1670 nM. It also gave an IC (TGI) [9] of 3450 nM, a GI50 [10] of 1750 nM and an IC (TGI) [10] of 3170 nM. The CC50 [10] was 5740 nM, the EC50 [11] was 1880 ± 300 nM and the EC50 [12] was 3130 ± 100 nM. The EC50 [13] was 2660 ± 200 nM, the EC50 [14] was 2840 ± 200 nM and the EC50 [15] was 4350 ± 200 nM. It also gave a GI50 [16] of 1600 nM, an IC (TGI) [16] of 3020 nM and a CC50 [16] of 5670 nM. The GI50 [17] was 1600 nM, the IC (TGI) [17] was 3400 nM and the CC50 ([17]; MCF7, read-out: LC50) was 7230 nM. The IC (TGI) [18] was 3070 nM, the GI50 [18] was 1610 nM and the CC50 [18] was 5860 nM. The GI50 [19] was 1850 nM, the IC (TGI) [19] was 3660 nM and the GI50 [20] was 1830 nM. For the same compound, the IC (TGI) [20] was 3630 nM, the GI50 [21] was 1540 nM and the IC (TGI) [21] was 2900 nM. It also gave a CC50 [21] of 5440 nM, a GI50 [22] of 1560 nM and an IC (TGI) [22] of 3040 nM. For the same compound, the CC50 [22] was 5930 nM, the “Growth % of the Most Sensitive Cell Lines” value ([23]; 1 dose 10 µM) was −94.94% and the GI50 [23] was 1760 nM. For the same compound, the IC (TGI) [23] was 3140 nM, the CC50 [23] was 5600 nM and the GI50 [24] was 1780 nM. It also gave an IC (TGI) [24] of 3360 nM and a CC50 [24] of 6370 nM.

From article PMC7914897, “Cytotoxic Potential of a-Azepano- and 3-Amino-3,4-SeCo-Triterpenoids” (International Journal of Molecular Sciences, 2021)
